Test results: patent US20240336625A1, “SULFONIMIDAMDE COMPOUNDS AND USES THEREOF” (Genentech, Inc., priority 2021, published 2024)
Like-named read-outs stand apart in the source and are kept apart here.

Key:
[1] = system: NLRP3 inflammasome pathway; assay: Human Whole Blood Assay (IL-1β release, LPS + ATP); assay type: cell-based; conditions: read-out: HWB IC90
Method: The ability of selected compounds to inhibit IL-1beta production in human blood was assessed in a human whole blood assay with lipopolysaccharide.
Fresh human whole blood (HWB) was obtained from healthy donors. […] At the end of stimulation, the plates were centrifuged 2 min×3000 rpm, and supernatant transferred into fresh plates and stored at −80° C. until IL-1β analysis. IL-1b levels were measured using electrochemiluminescence immunoassay with an anti-IL-1b antibody as a primary detection agent.

[2] = Rat Pharmacokinetic (PK) Studies; assay type: in vivo, Sprague-Dawley rats; conditions: male, Sprague-Dawley, plasma; for bioavailability: 1 mg/kg PO vs 0.5 mg/kg IV cassette dose
Method: Studies were performed at WuXi AppTech Co., Ltd (Shanghai, P.R. China). Food and water were available ad libitum except for animals that were dosed oral doses in pharmacokinetic (PK) studies, which were fasted overnight before dosing of test compounds. Six male Sprague-Dawley rats, aged 6-9 weeks with body weight of 200-300 g were obtained from Vital River Laboratory Animal Technology Co., Ltd., Beijing, P.R. China and were randomly allocated to two dose groups (3 rats were used for the IV group and 3 rats for the PO group). Animals in Group 1 were given a single IV bolus cassette dose of 0.5 mg/kg of test compounds at a dose volume of 1 mL/kg, formulated in DMSO/PEG400/Water (10/60/30). Animals in Group 2 were given a 1 mg/kg PO cassette dose of test compounds at a dose volume of 1 mL/kg, formulated in 0.5% Methyl cellulose/0.2% Tween 80 (MCT) as a suspension. Blood samples were collected via catheter at the femoral artery into tubes containing K2EDTA as an anticoagulant. Both groups were sampled at 0.033, 0.083, 0.25, 0.5, 1, 2, 4, 8 and 24 hours post-dose for blood. All samples were stored at −80° C. until analysis. The concentration of test compounds in each blood or plasma sample was determined by LC-MS/MS analysis.
PK parameters were calculated by noncompartmental methods as described in Gibaldi and Perrier (1982) using Phoenix™ WinNonlin (Certara, Princeton, NJ) version 8.3.4.295. Parameters are presented as mean±SD. Bioavailability (F) was determined by dividing the dose-normalized area under the plasma concentration-time curve from time 0 extrapolated to infinity (AUCinf) for each animals dosed orally by the dose-normalized mean AUCinf determined from the animals dosed intravenously.

[3] = target: T1, hPXR nuclear receptor (Homo sapiens, UniProt O75469); assay: PXR Activation Assay; assay type: cell-based; conditions: relative to positive control (rifampicin)
T1 construct: expressed in transfected cells
T1 sequence (O75469 1-434): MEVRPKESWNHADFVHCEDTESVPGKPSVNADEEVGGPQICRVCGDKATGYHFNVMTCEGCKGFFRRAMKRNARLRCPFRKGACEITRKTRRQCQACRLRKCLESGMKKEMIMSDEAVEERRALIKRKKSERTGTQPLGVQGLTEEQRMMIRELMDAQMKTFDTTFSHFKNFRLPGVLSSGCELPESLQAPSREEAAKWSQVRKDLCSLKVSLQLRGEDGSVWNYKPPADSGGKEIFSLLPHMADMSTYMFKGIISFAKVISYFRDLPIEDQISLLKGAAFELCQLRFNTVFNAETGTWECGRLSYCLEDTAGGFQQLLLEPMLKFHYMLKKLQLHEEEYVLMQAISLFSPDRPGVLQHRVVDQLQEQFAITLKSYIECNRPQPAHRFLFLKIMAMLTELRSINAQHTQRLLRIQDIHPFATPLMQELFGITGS
Method: Hepatoma cells either expressing an endogenous human […] or transfected with the hPXR nuclear receptor and the corresponding response elements were seeded in a 96-well plate. Twenty-four hours after seeding, the cells were treated with six distinct concentrations of test compounds in duplicate wells, and cells then returned to the incubator for an additional 24 h. At the end of this incubation period, the number of viable cells/well was determined using Promega's Cell Titer Fluor cytotoxicity assay. Following this assay, Promega's ONE-Glo was added to the same wells and reporter gene activity assessed.
Data processed using MS-Excel was provided as the mean (n=2) of the fold receptor activation relative to vehicle-treated cells at each of the six different doses. All activation data was normalized to the number of viable cells/well. Results were also expressed as a percentage of the response given by the appropriate positive control (rifampicin) at a 10 μM dose. EC50 and Emax values were derived for positive controls using nonlinear regression of log dose-response curves.

[4] = system: NLRP3 dependent inflammasome pathway; assay: THP-1 ASC-GFP Speck Assay; assay type: cell-based; conditions: THP1-ASC-GFP; THP-1 ASC-GFP cells, LPS primed, 10 μM nigericin
Method: Cell Culture: THP-1 ASC-GFP cell line is purchased from Invivogen, San Diego, for inflammasome activation assay. THP-1 ASC-GFP cells stably express a 37.6 kDa ASC::GFP fusion protein that enables monitoring of spec formation by microscopy after activation of NLRP3 dependent inflammasome pathway. Cells are maintained at a density of 600,000 cells/mL in growth media consisting of RPMI 1640, 2 mM L-glutamine, 25 mM HEPES and 10% heat inactivated fetal bovine serum at 37° C. and 5% CO2. Cells are passaged every 3-4 days and used for assays for up to 20 passages.
NLRP3 inflammasome activation assay: THP-1 ASC-GFP cells are collected by centrifuging cells at 800 RPM for 5 minutes. Cell culture supernatant is removed and cells are resuspended in fresh media at density of 1×10^6 cells/mL in assay media consisting of RPMI 1640, 2 mM L-glutamine, 25 mM HEPES and 10% heat inactivated fetal bovine serum.
Phorbol 12-myristate 13-acetate (PMA) (Invivogen, tlrl-pma) is added to the cell suspension at a final concentration of 500 ng/ml and mixed thoroughly. 40,000 cells are added per well of a 384 well plate and differentiated into macrophages overnight at 37° C. and 5% CO2. […]
Imaging ASC-GFP specks: THP-1 ASC-GFP cells are imaged in 488 and Hoechst channels. […] Percentage of cells with a spec is calculated by dividing the number of GFP positive spots by total number of cells.

[5] = Homo sapiens, LPS 200 ng/mL, ATP 1.75 mM, IL-1β
[6] = read-out: Rat Half Life (converted)

SMILES	IC90 [1, 5]	bioavailability [2]	half-life [2, 6]	% PXR activation @ 10 μM [3]	half-life ([2]; read-out: half life)	IC90 ([1]; Homo sapiens)	IC50 [4]	IC90 ([1]; LPS 200 ng/mL, ATP 1.75 mM, IL-1β)
CC1(C)COc2c(S(N)(=O)=NC(=O)Nc3c4c(cc5c3CCC5)CCC4)cnn2C1 (stereo not shown) [XA]	480 nM	45%	2 h	61%	–	–	–	–
CC1(C)COc2c(S(N)(=O)=NC(=O)Nc3c4c(cc5c3CC5)CC4)cnn2C1 (stereo not shown) [XE]	520 nM	126%	–	63%	–	–	–	–
CNC1COc2c(S(N)(=O)=NC(=O)Nc3c4c(c(F)c5c3CC5)CC4)cnn2C1 (stereo not shown) [XO]	110 nM	32%	1.3 h	3.3%	< 1 h	–	–	–
NS(=O)(=NC(=O)Nc1c2c(cc3c1CCC3)CCC2)c1cnn2c1OC(CO)C2 (stereo not shown) [XL]	390 nM	–	–	3.7%	–	–	–	–
CC1(C)Cn2ncc(S(N)(=O)=NC(=O)Nc3c4c(cc5c3CC5)CC4)c2O1 (stereo not shown) [XH]	130 nM	85%	1.9 h	81%	–	–	–	–
NS(=O)(=NC(=O)Nc1c2c(cc3c1CC3)CCC2)c1cnn2c1OCCC2 (stereo not shown) [XC]	3400 nM	–	–	26%	–	–	–	–
NS(=O)(=NC(=O)Nc1c2c(cc3c1CC3)CC2)c1cnn2c1OCC2 (stereo not shown) [XF]	3300 nM	54%	–	15%	–	–	–	–
C[C@@H]1COc2c(S(N)(=O)=NC(=O)Nc3c4c(cc5c3CCC5)CCC4)cnn2C1 (single isomer, unassigned) [XG]	770 nM	28%	–	25%	–	–	–	–
C[C@]1(CO)Cn2ncc([S@](N)(=O)=NC(=O)Nc3c4c(c(F)c5c3CC5)CC4)c2O1 [Compound 6, (R,2R)-N′-((7-fluorotricyclo[6.2.0.0^3,6]deca-1,3(6),7-trien-2-yl)carbamoyl)-2-(hydroxymethyl)-2-methyl-2,3-dihydropyrazolo[5,1-b]oxazole-7-sulfonimidamide]	55 nM	48%	1.8 h	–	> 1.5 h	< 100 nM	–	–
CC1(C)Cn2ncc(S(N)(=O)=NC(=O)Nc3c4c(cc5c3CCC5)CCC4)c2O1 (stereo not shown) [XB]	290 nM	91%	0.87 h	74%	–	–	–	–
NS(=O)(=NC(=O)Nc1c2c(cc3c1CCC3)CCC2)c1cnn2c1OCC(O)C2 (stereo not shown) [XM]	2400 nM	–	–	2.4%	–	–	–	–
C[C@]1(CO)Cn2ncc([S@](N)(=O)=NC(=O)Nc3c4c(cc5c3CC5)CC4)c2O1 [Compound A, (R,2R)-2-(hydroxymethyl)-2-methyl-N-(tricyclo[6.2.0.0^3,6]deca-1,3(6),7-trien-2-ylcarbamoyl)-2,3-dihydropyrazolo[5,1-b]oxazole-7-sulfonimidamide]	–	–	–	–	–	–	0.98 nM	–
CC1(CO)Cn2ncc(S(N)(=O)=NC(=O)Nc3c4c(cc5c3CCC5)CCC4)c2O1 (stereo not shown) [XN]	–	36%	1.2 h	6.2%	–	–	–	–
CC1(C)Cn2ncc(S(N)(=O)=NC(=O)Nc3c4c(cc5c3CC5)CCC4)c2O1 (stereo not shown) [XI]	240 nM	39%	–	90%	–	–	–	–
C[C@]1(CO)Cn2ncc([S@](N)(=O)=NC(=O)Nc3c4c(c(F)c5c3CC5)CC4)c2O1 (single isomer, unassigned) [Compound G]	–	–	–	–	–	–	1.1 nM	–
NS(=O)(=NC(=O)Nc1c2c(cc3c1CCC3)CCC2)c1cnn2c1OCCC2 (stereo not shown) [XD]	1700 nM	–	–	22%	–	–	–	–
COC1CN(C2COc3c(S(N)(=O)=NC(=O)Nc4c5c(cc6c4CC6)CC5)cnn3C2)C1 (stereo not shown) [XP]	130 nM	33%	1.9 h	–	–	–	–	–
C[C@]1(CO)Cn2ncc([S@](N)(=O)=NC(=O)Nc3c4c(cc5c3CC5)CC4)c2O1 [Compound 2, (R,2R)-2-(hydroxymethyl)-2-methyl-N′-(tricyclo[6.2.0.0^3,6]deca-1,3(6), 7-trien-2-ylcarbamoyl)-2,3-dihydropyrazolo[5,1-b]oxazole-7-sulfonimidamide]	43 nM	53%	> 2 h	–	–	< 100 nM	–	–
CC1(CO)COc2c(S(N)(=O)=NC(=O)Nc3c4c(cc5c3CCC5)CCC4)cnn2C1 (single isomer, unassigned) [XK]	–	–	–	4%	–	–	–	560 nM
CC1(CO)COc2c(S(N)(=O)=NC(=O)Nc3c4c(cc5c3CCC5)CCC4)cnn2C1 (single isomer, unassigned) [XJ]	700 nM	–	–	2.4%	–	–	–	–
